Marks after values point to notes of the source that are not given here.
What was measured:
Balb/C mice = experiment: Asthma Protocol (ovalbumin sensitized and challenged mice, bronchoaveolar lavage); format: in vivo, mouse; conditions: sc, daily dosing at 100 mg/kg from day 0–13, lavage fluid
Experimental: Balb/C mice (6–8 weeks old) are sensitized to ovalbumin (ova) (8 ug ova absorbed in 3.3 mg Alum inject) on days 0 and 5. On day 12, the mice were aerosol challenged with 0.5% ovalbumin dissolved in sterile saline for 1 hr in the AM, and then again in the PM (at least 4 hr apart). On day 14, the mice were anesthetized with ketamine/xylazine/acepromazine cocktail, exsanguinated, and then euthanized. Following blood collection, bronchoaveolar lavage was performed on each animal. Total cell counts were conducted on the lavage fluid, which was subsequently diluted with cell media 1:1. Slides of the lavage fluid were made by spinning the samples with a cytospin centrifuge. Slides were airdried and stained with x. Cell differentials of the lavage fluid were completed at the conclusion of the study. All compounds except Example 2 were well tolerated with no body weight loss throughout the course of the study. Statistical analysis involved ANOVA and Tukey-Kramer post hoc tests. Compounds were administered except where noted by subcutaneous injection once daily from day 0–13. The formulations used contained various mixtures of the following excipients (pharmasolve, cremophor RH 40, tween 80, PEG 300). See Biological Table 3

VCAM-1 = experiment: In Vitro VCAM-1 Assay (TNF-α stimulated HAEC or HPAEC, cell ELISA); format: cell-based, human; conditions: Homo sapiens, 16 h, TNF-α (1 ng/ml) stimulated HAEC or HPAEC, approximately 16 hours
Summary of the method: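 Primary human aortic or pulmonary endothelial cells (below passage 9) stimulated with TNF-α (1 ng/ml) plus compound (four concentrations, ≤0.25% DMSO) for about 16 h. Surface VCAM-1 detected by cell ELISA (HRP/TMB, OD 450 nm). IC50 taken as the concentration giving 50% inhibition of the TNF-α-only response.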

Male Lewis rats = experiment: Rheumatoid Arthritis Protocol (rat adjuvant arthritis, paw swelling); format: in vivo; conditions: sq, bid
Experimental: Male Lewis rats (150–175 g) from Charles River Laboratories were anesthetized on day 0 with 3–5% isoflurane anesthesia while the tail base was shaved and adjuvant mixture was injected. Fifty μL of adjuvant (10 mg/ml M. butyricum in mineral oil) was injected subcutaneously into two sites at the tail base. Paw swelling was monitored using a plethysmometer (UGO Basile), after shaving each leg to the level of the Achilles tendon to mark the level of immersion. A baseline paw measurement for both hindpaws was taken between d2-d5 and a second measurement was taken on day 7–8. Onset of paw swelling occurred rapidly between d9–11 and daily measurements were performed every weekday between d9 and day 15. Compounds of the invention and vehicles were dosed either prophylactically (d1–14), or therapeutically (d9–14) after swelling was confirmed. Solutions were injected subcutaneously or given orally by gavage 1–2 times per day. From day 0, rats were weighed every 2–3 days and overall health was monitored. Plasma drug levels, if desired, were measured in tail-vein derived blood samples taken on day 14. On day 15, blood samples were obtained by cardiac puncture, rats were euthanized with CO2, selected organs removed and both hindpaws were amputated and placed in 10% buffered formalin for histopathological analysis. See Biological Table 2.

| SMILES | % Inhibition (Balb/C mice) [%] | IC50 (VCAM-1) [nM] | % Inhibition (Male Lewis rats; 75 mg/kg/day, dl–14) | melting point | % Inhibition (Male Lewis rats; 60 mg/Kg/day, d1–14) [%] |
| --- | --- | --- | --- | --- | --- |
| COc1cc(OCCN2CCOCC2)c(/C=C/C(=O)c2ccc(C(=O)O)cc2)cc1-c1cccs1.Cl [Example 60, 4-{3E-[4-Methoxy-2-(2-morpholin-4-yl-ethoxy)-5-thiophen-2-yl-phenyl]-acryloyl}-benzoic acid, hydrochloride] | 36 | < 1000 | 62* % | 255 °C (dec.) | – |
| COCCOCCOc1cc(OC)c(-c2cccs2)cc1/C=C/C(=O)c1ccc(C(=O)O)cc1 [Example 29, 4-(3E-{4-Methoxy-2-[2-(2-methoxyethoxy)ethoxy]-5-thiophen-2-yl-phenyl}-acryloyl)-benzoic Acid] | 24 | < 1000 | – | – | 82 |
| COc1cc(OC)c(-c2cccs2)cc1/C=C/C(=O)c1ccc(C(=O)O)cc1 [Example 6, 4-[3E-(2,4-Dimethoxy-5-thiophen-2-yl-phenyl)-acryloyl]-benzoic acid] | 81 | < 1000 | – | 213 to 216 °C | 77 |
